# Source: patent publication US20240408158A1 (LINYI UNIVERSITY, priority 2023, published 2024)
# Legend:
# mice with hyperuricemia = test: Model of hyperuricemia induced by high purine (yeast extract plus oteracil potassium); assay type: in vivo; conditions: allopurinol treatment group 20 mg/kg gavage, 7 days, 5 mice per group
# Text: 1. Experimental animal: Balb/c male mice, 6-8 weeks old, with weigh of 16-18 g were purchased from Sperford (Beijing) Biotechnology Co., Ltd. At the Experimental Animal Center of Qingdao University, all mice were placed in pathogen free facilities, maintained at appropriate temperature and relative humidity, followed by a 12-hour light and dark cycle, they freely ate and drank, and clean bedding was replaced daily.
# 3. […] From Day 5 to Day 7, except for the blank control group, the other four groups were given 0.1 ml (6 mg/animal) of oteracil potassium by intraperitoneal injection.
# [1] = test system: mice with hyperuricemia induced by fructose and yeast diet; test: Model of hyperuricemia induced by fructose and yeast diet, serum uric acid; assay type: in vivo
# Text: 1. Experimental animal: […] At the Experimental Animal Center of Qingdao University, all mice were placed in pathogen free facilities, maintained at appropriate temperature and relative humidity, followed by a 12-hour light and dark cycle, they freely ate and drank and clean bedding was replaced daily. 3. Method of modeling: 36 Balb/c male mice were divided into 6 groups, with 6 mice in each group. They were: […] Dissolving allopurinol and Antarctic red pigment in double distilled water and mixing well. […] Weights of each group of mice from day 0 onwards were recorded. 5. Uric acid testing: At Sam on days 14, 21, 28, and 35, mice were fasted for 12 hours and blood samples from the posterior orbital venous plexus of the mice were collected for uric acid testing. After the blood collection was completed, the blood was left at room temperature for one hour and centrifuged at a speed of 3000 rpm for 5 minutes to obtain a light-yellow upper serum.
# [2] = test system: mouse bone marrow red cells; conditions: positive control 40 mg/kg BW; P<0.01
# Method: 3.3 Mammalian red blood cell micronucleus test: 50 healthy, mature mice with weight of 25-30 g were selected, with half male and half female. The mice were randomly divided into 5 groups, 10 mice in each group, and half male and half female in each group. The experiment was conducted with three dose groups of 1.25, 2.5, and 5.0 g/kgBW Samples of 2.5, 5.0, and 10.0 g were weighed and prepared into 40 mL sample solutions using distilled water as the solvent. […] Mice were given test substance by oral gavage at a volume of 20 mL/kgBW, gavaged twice with an interval of 24 hours. Six hours after the second gavage, the animals were euthanized due to cervical dislocation. Sternal bone marrow was taken and made into bone marrow slices, fixed with methanol, and stained with Giemsa.
# 2000 polychromatic erythrocytes in each animal were observed and a frequency of micronucleus polychromatic erythrocytes (namely, micronucleus frequency) was counted, expressed in thousandths.
# [3] = after 14 days, Allopurinol group 20 mg/kg
Structure (SMILES),deaths (mice with hyperuricemia),"uric acid level ([1]; 21st day, Allopurinol group 20 mg/kg)","uric acid level ([1]; 28th day, Allopurinol group 20 mg/kg)","uric acid level ([1]; 35th day, Allopurinol group 20 mg/kg)","increase of uric acid level compared with the control group [1, 3]","uric acid level lower than in the High uric acid model group [1, 3]","uric acid level ([1]; after 14 days, Allopurinol group 20 mg/kg gavage once a day)",micronucleus frequency compared with negative control group [2]
Oc1ncnc2[nH]ncc12 [allopurinol],no deaths,247.2 ± 48.98 µmol/L,264.9 ± 54.87 µmol/L,215.8 ± 37.132 µmol/L,24.67%,30.39%,191.5 ± 21.95 µmol/L,–
O=P1(N(CCCl)CCCl)NCCCO1 (centres unmarked) [cyclophosphamide],–,–,–,–,–,–,–,significantly higher
